Values quoted from earlier work in patent publication US20150164917A1 (VALPHARMA INTERNATIONAL S.P.A., priority 2012, published 2015).

System: uterine fibrosis
Details: 5 mg daily oral for 6 months, compared with higher doses

## CC#C[C@]1(O)CC[C@H]2[C@@H]3CCC4=CC(=O)CCC4=C3[C@@H](c3ccc(N(C)C)cc3)C[C@@]21C [Mifepristone]
  effects in the treatment of uterine fibrosis: effects comparable with those of higher doses of Mifepristone
